Reference: article PMC11595689, “Aeruginosin 525 (AER525) from Cyanobacterium Aphanizomenon Sp. (KUCC C2): A New Serine Proteases Inhibitor” (Marine Drugs, 2024)
“Also recorded” adds a separate entry of the source.

How the values were obtained:
thrombin = target: T1, thrombin (Homo sapiens, UniProt P00734); test: Thrombin inhibition assay; type: biochemical
T1 construct: purchased Sigma Aldrich
Protocol: (§1) The enzyme inhibitory activity of fractions and AER525 was tested against trypsin [55], chymotrypsin [56], thrombin [56], elastase, and carboxypeptidase A [56]. For full details on trypsin, chymotrypsin, thrombin, and elastase inhibition assay refer to the work of Overlingė et al.. In the carboxypeptidase A assay, the final concentration of the enzyme was 1.6 µM, N-(4-methoxy-phenyl-azoformyl)-Phe-OH (GLPBIO Technology LLC; Montclair, CA, USA) at a concentration of 0.2 mg mL^−1 served as a substrate, and the carboxypeptidase inhibitor from potato tuber was used at a concentration range of 2.5–150 µg mL^−1. Mixtures containing the sample (10 µL) or inhibitor (10 µL) were preincubated with the enzyme (10 µL) and buffer (160 µL; 50 mM Tris-HCl at pH 7.5) at 25 °C. After 10 min, the substrate (20 µL) was added, and the reaction mixture was incubated for another 10 min at 25 °C. The absorbance of the solutions was measured at 350 nm with the application of a microplate reader (Varioskan Flash, Thermo Fisher Scientific OY, Vantaa, Finland). All enzymes were from Sigma Aldrich (St. Louis, MO, USA); 1% v/v DMSO was used to dissolve fractions at final concentrations of 45 µg mL^−1, while for pure AER525, it was additionally serially diluted to 45, 4.5, 0.45, and 0.045 µg mL^−1. […]

chymotrypsin = target: T2, chymotrypsin (Bos taurus, UniProt P00766); test: Chymotrypsin inhibition assay; type: biochemical; details: highest concentration 45 µg mL^−1
T2 construct: purchased Sigma Aldrich
Protocol: as §1

elastase = test: Elastase inhibition assay; type: biochemical; details: highest concentration 45 µg mL^−1
Protocol: as §1

[1] = system: human cytosolic enzyme which is involved both in tumor progression and phytochemical bioavailability; details: ref [12]; cited from earlier work
Source text: (§2) In addition to the nutritional properties of Aphanizomenon, assessed mainly based on the analyses of extracts, there are several studies showing that the cyanobacterium produces metabolites of significant biological activities.

[2] = ref [10],[11]; cited from earlier work
Source text: as §2

Question: With `CC(C)C[C@@H](NC(=O)[C@@H](N)CO)C(=O)N1[C@H](C(=O)N[C@H](C=O)CCCNC(=N)N)C[C@@H]2CC[C@@H](O)C[C@@H]21` [AER525] as the molecule, how does the “activity against thrombin (in words)” value (thrombin) read?
Answer: Its value is “potent activity; also recorded: strong thrombin-inhibitory activity”.

Question: And the “potency of thrombin inhibition, AER525 compared with dysinosin D (in words)” value (thrombin)?
Answer: The value was “comparable potency”.

Question: What about the “activity against chymotrypsin (in words)” value (chymotrypsin) of the same molecule?
Answer: Its value is “no effect”.

Question: And the “activity against elastase (in words)” value (elastase)?
Answer: Its value is “no effect; also recorded: No activity”.

Question: What about the “Elastase enzyme inhibition (IC50)” value (elastase; triplicates) of the same molecule?
Answer: Its value is “- (not active (inhibition below 10%))”.

Question: Which “inhibition of the human cytosolic enzyme (in words)” value [1] does the source give for `NCCc1ccccc1` [β-phenylethylamine] here?
Answer: Its value is “acted as inhibitors”.

Question: And the “alleviating depression and anxiety symptoms (in words)” value [2]?
Answer: The value was “showed effectiveness in alleviating depression and anxiety symptoms”.

Question: For phycocyanobilin, which “inhibition of the human cytosolic enzyme (in words)” value [1] is on record?
Answer: Its value is “acted as inhibitors”.

Question: And the “alleviating depression and anxiety symptoms (in words)” value [2]?
Answer: The value was “showed effectiveness in alleviating depression and anxiety symptoms”.
